Reference: patent publication US20190307754A1, “PDE9 INHIBITORS FOR TREATMENT OF PERIPHERAL DISEASES” (IMARA, INC., priority 2016, published 2019)
“And” between values parts separate entries of the source, which are not always exact repeats. Equal entries are not always repeated. “Also recorded” adds a separate entry of the source. Where two headings read alike, the source gives them in different places. Marks after values point to notes of the source that are not given here.

Columns and labels:
[1] = tested on: C57Bl/6J mice; test: Locomotor activity and contextual fear conditioning in C57Bl/6J mice; assay type: in vivo; settings: 10 or 30 mg/kg/day, gavage, 5 days
Description: The exposure of both compounds was also evaluated in the plasma, brain, and eye. […] During the treatment period all animals were assessed for contextual fear conditioning and a subset of 7 animals per group was evaluated for locomotor activity. On Day 5, plasma, brain, and eye tissue were collected 30 minutes after dosing from 3 animals per treated group to measure concentrations of test item.

[2] = molecular target: hERG-mediated potassium currents (Homo sapiens, UniProt Q12809); test: in vitro hERG assay; assay type: cell-based; settings: concentrations up through 10^−5 M
From the text: (§1) The safety pharmacology assessment of Compound P3.1 included an in vitro hERG assay, neurofunctional and respiratory studies in rats, and a cardiovascular study in beagle dogs.

[3] = tested on: Han Wistar Rats; test: Neurofunctional study in Han Wistar rats; assay type: in vivo, rat
Description: as §1
Single oral doses of 250, 500, and 1000 mg/kg Compound P3.1 in Han Wistar Rats had no effect on clinical observations, home cage observations, handheld observations, or body temperatures.

[4] = Pharmacokinetics of single oral and IV dose in CD1 mice; assay type: in vivo
Description: (§2) Blood samples were taken at 2 minutes (IV only), then 8, 15, 30 minutes, and 1, 2, 4, 8, and 24 hours after dosing and analyzed for key PK parameters. In the rats, brain samples were taken at 24 hours and analyzed for Compound P3.1. To evaluate the penetration of Compound P3.1 across the blood-brain barrier (BBB), 10 additional rats received IV Compound P3.1 3 mg/kg and plasma and brain concentrations of Compound P3.1 were determined from 2 animals at 15 minutes, 30 minutes and 1, 2, and 4 hours after dosing.

[5] = Brain and plasma concentrations after single IV dose in rat; assay type: in vivo; settings: for Mean Plasma/Brain Ratio / Concentration Brain / Concentration Plasma / Plasma/Brain Ratio: 3 mg/kg IV; for Concentration Brain / Concentration Plasma / Plasma/Brain Ratio: individual animals, 3 mg/kg
Description: as §2

[6] = Plasma protein binding, mouse; assay type: in vitro ADME; settings: read-out: mean plasma fraction bound (converted)
[7] = Plasma protein binding, rat; assay type: in vitro ADME; settings: read-out: mean plasma fraction bound (converted)
[8] = Metabolic stability (intrinsic clearance) in liver microsomes; assay type: in vitro ADME, mouse, rat, dog, monkey, and human
[9] = in vivo; settings: rat, 250 mg/kg/day
Description: Animals were observed daily from the start of the dosing and body weights and food intake were recorded at regular intervals. Blood samples were collected from a subset of animals in each group at 6 time points on Day 7 for TK evaluation.

[10] = Fourteen-day repeat-dose toxicity study in beagle dogs; assay type: in vivo, dog; settings: beagle, in vivo, dog; for NOAEL at 14 days: both sexes, oral, males and females, 14-day; for Cmax / AUC(0-t): po; for AUC(0-t): read-out: AUC0-24
Description: (§3) In a GLP 14-day repeat-dose toxicity study in dogs, Compound P3.1 was orally administered at doses of 0, 10, 35, or 75 mg/kg/day. […] The no-observed-adverse-effect level (NOAEL) was considered to be 35 mg/kg/day in males and females.

[11] = tested on: dog; test: as above; assay type: in vivo
Description: as §3

[12] = tested on: rat; test: Rat female fertility study; assay type: in vivo; settings: female rat, 25, 100, or 200 mg/kg/d oral gavage
Description: In a rat female fertility study, animal groups were given 0, 25, 100, or 200 mg/kg/d oral gavage of Compound P3.1. No treatment-related clinical signs were observed. […] There were no macroscopic necropsy findings that indicated an effect of Compound P3.1 administration.

[13] = tested on: CD34+ derived red blood cells from SCD subjects; settings: 10 μM Compound P3.1, 5 days
[14] = tested on: CYP2B6; test: CYP induction in human hepatocytes, CYP2B6
[15] = mouse, blood, CD1 mice, 3 mg/kg IV
[16] = mouse, blood, CD1 mice, 10 mg/kg oral
[17] = female, 10 mg, females, 10 mg, Day 1
[18] = female, 10 mg, females, 10 mg, Day 14
[19] = female, 35 mg, females, 35 mg, Day 1
[20] = female, 35 mg, females, 35 mg, Day 14
[21] = female, 75 mg/kg/day, females, 75 mg, Day 1
[22] = female, 75 mg/kg/day, females, 75 mg, Day 14
[23] = male, 10 mg, males, 10 mg, Day 1
[24] = male, 10 mg, males, 10 mg, Day 14
[25] = male, 35 mg, males, 35 mg, Day 1
[26] = male, 35 mg, males, 35 mg, Day 14
[27] = male, 75 mg/kg/day, males, 75 mg, Day 1
[28] = male, 75 mg/kg/day, males, 75 mg, Day 14

Sequence of hERG-mediated potassium currents (Q12809 whole entry): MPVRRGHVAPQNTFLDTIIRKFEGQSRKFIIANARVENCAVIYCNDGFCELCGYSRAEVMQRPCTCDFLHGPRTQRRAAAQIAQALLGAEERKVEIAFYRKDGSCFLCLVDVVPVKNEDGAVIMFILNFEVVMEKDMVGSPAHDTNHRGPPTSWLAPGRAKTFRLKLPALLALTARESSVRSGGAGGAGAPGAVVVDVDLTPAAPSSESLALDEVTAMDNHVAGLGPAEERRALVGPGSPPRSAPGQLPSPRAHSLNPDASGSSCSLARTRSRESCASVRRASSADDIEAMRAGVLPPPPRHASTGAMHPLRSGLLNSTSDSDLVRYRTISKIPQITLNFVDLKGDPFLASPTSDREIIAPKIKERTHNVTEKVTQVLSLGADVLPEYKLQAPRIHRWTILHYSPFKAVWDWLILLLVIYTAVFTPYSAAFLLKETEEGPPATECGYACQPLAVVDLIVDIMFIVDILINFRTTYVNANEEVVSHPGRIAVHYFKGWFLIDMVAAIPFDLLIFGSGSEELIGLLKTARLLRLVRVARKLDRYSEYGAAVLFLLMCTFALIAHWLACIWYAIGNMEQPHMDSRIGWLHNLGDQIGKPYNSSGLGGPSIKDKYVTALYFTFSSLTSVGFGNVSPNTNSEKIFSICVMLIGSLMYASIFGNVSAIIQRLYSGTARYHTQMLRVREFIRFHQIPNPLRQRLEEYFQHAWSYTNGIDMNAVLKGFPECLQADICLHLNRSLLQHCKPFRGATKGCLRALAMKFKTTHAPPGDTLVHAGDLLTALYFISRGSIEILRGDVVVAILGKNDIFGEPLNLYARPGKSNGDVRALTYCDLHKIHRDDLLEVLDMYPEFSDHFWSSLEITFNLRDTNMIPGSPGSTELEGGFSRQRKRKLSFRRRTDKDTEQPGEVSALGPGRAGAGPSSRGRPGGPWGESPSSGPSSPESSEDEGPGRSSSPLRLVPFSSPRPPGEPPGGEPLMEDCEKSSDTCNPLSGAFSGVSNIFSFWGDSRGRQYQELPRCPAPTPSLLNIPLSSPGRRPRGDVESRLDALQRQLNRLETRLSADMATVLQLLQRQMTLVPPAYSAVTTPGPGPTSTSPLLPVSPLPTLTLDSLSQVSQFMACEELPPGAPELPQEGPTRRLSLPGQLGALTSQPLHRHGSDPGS

C[C@@H]1CN(Cc2ncccn2)C[C@H]1c1cn2c(C3CCOCC3)ncc2c(=O)[nH]1 (single isomer, unassigned) [Compound P3.1]
locomotor activity or memory [1]: no effect | inhibitory effect on hERG-mediated potassium currents [2]: did not have an inhibitory effect; also recorded: no inhibitory effect | adverse finding ([3]; >500 mg/kg, 0.5 and 24 hours post dosing): increased incidence of no visible-approach response | non-adverse findings at 250 mg/kg ([3]; single oral 250 mg/kg): transient decrease in sensory response (approach response) | non-adverse findings at 500 and 1000 mg/kg ([3]; single oral 500 and 1000 mg/kg): decreases in body weight/weight gain, motor activity (number of rears), and sensory response (tail pinch response) | clinical, home cage, handheld observations, body temperatures ([3]; single oral doses of 250, 500, and 1000 mg/kg): no effect | bioavailability ([4]; CD1, mouse, plasma, po, 10 mg/kg, read-out: oral bioavailability Flast): 44.6% | Cl_obs ([4]; CD1 mice, 3 mg/kg IV): 30.7 mL/min/kg | Flast ([4]; CD1 mice, 10 mg/kg oral): 63.4% | Vss obs ([4]; CD1 mice, 10 mg/kg oral): 63.4** L/kg | continuously exposed out to ([4]; mice, 10 mg/kg oral): 4 h | AUC(0-t) [4, 15]: 1630 ng·h/mL | C0 [4, 15]: 4430 ng/mL | MRT [4, 15]: 26.4 min | half-life [4, 15]: 37.8 min | Vd ([4]; mouse, blood, CD1 mice, 3 mg/kg IV, read-out: Vss obs): 0.89 L/kg | AUC(0-t) [4, 16]: 3440 ng·h/mL | C0 [4, 16]: 2750 ng/mL | Tmax [4, 16]: 30 min | half-life [4, 16]: 48.6 min | Mean Plasma/Brain Ratio ([5]; 0.25 h post dose): 20.2 | Concentration Brain ([5]; 0.25 h post dose): 111 and 112 | Concentration Plasma ([5]; 0.25 h post dose): 2400 and 2110 | Plasma/Brain Ratio ([5]; 0.25 h post dose): 21.6 and 18.8 | Mean Plasma/Brain Ratio ([5]; 0.5 h post dose): 25.1 | Concentration Brain ([5]; 0.5 h post dose): 82.5 and 50.7 | Concentration Plasma ([5]; 0.5 h post dose): 1790 and 1450 | Plasma/Brain Ratio ([5]; 0.5 h post dose): 21.7 and 28.6 | Mean Plasma/Brain Ratio ([5]; 1 h post dose): 23.1 | Concentration Brain ([5]; 1 h post dose): 28.6 and 44.1 | Concentration Plasma ([5]; 1 h post dose): 647 and 1040 | Plasma/Brain Ratio ([5]; 1 h post dose): 22.6 and 23.6 | Mean Plasma/Brain Ratio ([5]; 2 h post dose): 33.1 | Concentration Brain ([5]; 2 h post dose): 8.88 and 5.34 | Concentration Plasma ([5]; 2 h post dose): 245 and 206 | Plasma/Brain Ratio ([5]; 2 h post dose): 27.6 and 38.6 | Concentration Plasma ([5]; 4 h post dose): 59.8 and 107 | brain concentration at 4 hours postdose ([5]; IV dosing, 4 hours postdose): no longer detectable in the brain | fraction unbound [6]: 0.767 | fraction unbound [7]: 0.748 | metabolic stability ([8]; mouse, rat, dog, monkey, and human liver microsomes): highly stable | intrinsic clearance in liver microsomes ([8]; presence or absence of NADPH): minimal intrinsic clearance | AUC0-24 ([9]; male, Crl:WI(Han), po): 198000 ng·h/mL | Cmax ([9]; male, Crl:WI(Han), po): 18800 ng/mL | AUC(0-t) ([9]; male, Crl:WI(Han), po, AUC0-24): 226000 ng·h/mL | Cmax ([9]; male, Crl:WI(Han), po, Cmax): 16500 ng/mL | Cmax and systemic exposure of Compound P3.1 in isolation vs in combination with HU [9]: similar | NOAEL at 14 days ([10]; read-out: no-observed-adverse-effect level (NOAEL)): 35 mg/kg/day | NOAEL at 14 days ([10]; read-out: no-observed-adverse-effect-level (NOAEL)): 35 mg/kg | Cmax [10, 17]: 1970 ng/mL | AUC(0-t) [10, 17]: 24800 ng·h/mL | Cmax [10, 18]: 3780 ng/mL | AUC(0-t) [10, 18]: 25400 ng·h/mL | Cmax [10, 19]: 5180 ng/mL | AUC(0-t) [10, 19]: 66700 ng·h/mL | Cmax [10, 20]: 10000 ng/mL | AUC(0-t) [10, 20]: 87900 ng·h/mL | Cmax [10, 21]: 13200 ng/mL | AUC(0-t) [10, 21]: 152000 ng·h/mL | Cmax [10, 22]: 22100 ng/mL | AUC(0-t) [10, 22]: 224000 ng·h/mL | Cmax [10, 23]: 2730 ng/mL | AUC(0-t) [10, 23]: 29700 ng·h/mL | Cmax [10, 24]: 3120 ng/mL | AUC(0-t) [10, 24]: 24100 ng·h/mL | Cmax [10, 25]: 11200 ng/mL | AUC(0-t) [10, 25]: 114000 ng·h/mL | Cmax [10, 26]: 13100 ng/mL | AUC(0-t) [10, 26]: 98600 ng·h/mL | Cmax [10, 27]: 11000 ng/mL | AUC(0-t) [10, 27]: 137000 ng·h/mL | Cmax [10, 28]: 18300 ng/mL | AUC(0-t) [10, 28]: 193000 ng·h/mL | deaths ([11]; dog, 10, 35, or 75 mg/kg/day, 14 days): No deaths were observed at any dose | findings ([11]; dog, 35 or 75 mg/kg/day, oral, 14 days): emesis, liquid/loose feces, reduced food intake, and losses in body weight in some individuals | mean exposures vs dose ([11]; dog, Days 1 and 14): increased with dose in a broadly proportionate manner | early embryonic development [12]: no adverse effect | pre- or post-implantation loss [12]: no effect | amount of HbF within cells (mean MFI) [13]: 10,840 | mean MFI of HbF relative to controls [13]: 145% | percentage of HbF positive CD36+ cells (mean) ([13]; 5 SCD subjects): 24.6% | induction of CYP2B6 [14]: no potential for induction
